Data set [1] is described as follows: Solubility of linker-payloads (LC-MS standard curve, saturated solution). Conditions: for solubility at 10 min: thermodynamic from solid. Type of data set: physicochemical. Here is the method:
The following test assays the solubility of the linker-payloads with a cyclodextrin moiety and the linker-payloads without a cyclodextrin moiety.
The test compounds were dissolved in DMSO to build a standard curve using LC-MS method A or B. The test sample was dissolved in water and sonicated for 10 minutes, and then centrifuged. The upper clear solution was analyzed using the same method A or B and the solubility was calculated based on its peak area.
Detailed test procedures were as follows: • 1. […] 0.05 mg of compound was suspended in water (1 mL) and sonicated for 10 minutes. After centrifugation, the clear solution above was collected to provide the saturated sample solution. • 3. All the standard solutions A, B, C, D, E and sample solution were analyzed by LCMS (using the same method and same injection volume) to obtain the peak areas. • 4. Calculate the standard curve according to the data of A-D (X=concentration, Y=peak areas). • 5. Calculate to obtain the concentration of saturated sample solution according to the functions obtained above.

A further data set concerns the target Cathepsin B (Homo sapiens, UniProt P07858). The experiment in a line: Cathepsin B cleavage rate of linker-payloads (Example 66). Type of data set: biochemical. Conditions: for CapB (%) / capB: Cathepsin B cleavage rate; for CapB (%): pH 5.0, 37° C.; for capB: Table 8A. How it is done: Step 1: Preparation of Cathepsin B buffer: 0.1 M NaOAc/0.01M DTT (pH5.0) Dissolve 8.3 g/L NaOAc, 1.54 g/L DTT in deionized water. Adjust pH to 5.0 with HCl/sodium hydroxide.
Step 2: Test Cleavage Rate
• 1. Prepare 25 μM of testing sample: To a 2-mL-tube was added 0.5 mg of testing sample, followed by the addition of 0.2 mL of DMSO. The solution was added dropwise into 0.8 mL of 0.1 M NaOAc/0.01 M DTT buffer. The obtained mixtures were sonicated for 5 minutes to obtain clear and colorless solutions. The pH value of the solution was around 5 according to pH test strip. • 2. Preheat assay buffer: 0.1 M NaOAc/0.01 M DTT (pH 5.0) • 3. Spiking solutions for test compounds: 25 μM Spiking solutions for test compounds: Add 2 μL of 5 mM stock solution into 398 μL of 0.1 M NaOAc/0.01 M DTT buffer (pH 5.0). • 4. Prepare 0.47 μg/μL Cathepsin B in 50 mM NaOAc/1 mM EDTA (pH 5.0). Put on ice. • 5. Without CA074 samples: Add 4 μL of 0.47 μg/μL Cathepsin B into 196 μL of 25 μM Spiking solutions (from step 2), incubate the tubes at 37° C. • 6. With CA074 samples: Add 4 μL of 0.47 μg/μL Cathepsin B with 4 μL of 10 mM Inhibitor (CA074) into 196 μL of 25 μM Spiking solutions (from step 2), incubate the tubes. • 7. After quenching, shake the plate and centrifuge them at 14000 rpm. • 8. Transfer 50 μL of the supernatant from each well into a 96-well sample plate containing 50 μL of ultra pure water (Millipore, ZMQS50F01) for LC/MS analysis. Step 3: Test reference compounds: • 9. Preheat assay buffer: 100 mM Na/K phosphate, pH 6.0, with 1.33 mM EDTA and 2 mM DTT. • 10. Prepare 0.024 μg/μL Cathepsin B: Add 1 μL of 0.47 μg/μL Cathepsin B stock into 19 μL of assay buffer (from step 11). • 11. Add 2 μL of 0.024 μg/μL Cathepsin B (from step 12) to a opaque 96-well plate. • 12. Add 96 μL of assay buffer to each sample. • 13. Add 2 μL of the 10 mM substrate Z-RR-MNA (200 μM final concentration). • 14. For negative control (With inhibitor), add 2 μL of 10 mM Inhibitor (CA074): Immediately read the samples in a kinetic mode at excitation of 340 nm/emission of 425 nm (Read the plate every 30 Second for 3 min). Step 4: Stability of Cathepsin B in incubation samples: • 15. Take 5 μL of incubation samples into 93 μL of assay buffer (from step 11), and then add 2 μL of 10 mM substrate (Z-RR-MNA). • 16. Incubate the samples at 37° C. for 2 min. • 17. Read the samples at excitation of 340 nm/emission of 425 nm.

[2] abbreviates: water, aqueous, read-out: Aq. Solubility.
[3] abbreviates: water, water, read-out: Solubility.

This note sets out measurements from US12589101B2, “Cyclodextrin protein drug conjugates” (Regeneron Pharmaceuticals, Inc., priority 2017, dated 2026).

Converted amounts (≈) assume the structure as drawn. Read-outs that look alike come from different tables or passages of the source. Numbered stars: 1 amine (or outer) side, 2 acyl side, 3 side chain; on linkers, the order of the positions; unused ones are H or OH. Square brackets hold non-standard residues; d marks the D form. Peptide text beside a SMILES is read from it. * marks the point of attachment. Dolaproine = CO[C@@H]([C@@H]1CCCN1)[C@@H](C)C(=O)O; Dil = CC[C@H](C)[C@H](NC)[C@@H](CC(=O)O)OC; PABC = O=C(OCc1ccc(N[*:1])cc1)[*:2]; DBCO = C1#Cc2ccccc2N(*)Cc2ccccc21; X1 = C[C@@H](N*)[C@@H](O)c1ccccc1; Cit = NC(=O)NCCC[C@H](N)C(=O)O; PEG4 = NCCOCCOCCOCCOCCC(=O)O; Suc = O=C(CCC(=O)[*:2])[*:1]; NMeV = CN[C@H](C(=O)O)C(C)C

On to `CCC[C@@H]1O[C@@H]2C[C@H]3[C@@H]4CCC5=CC(=O)C=C[C@]5(C)[C@H]4[C@@H](O)C[C@]3(C)[C@]2(C(=O)COc2ccc(NC(=O)[C@H](C)NC(=O)[C@@H](NC(=O)[C@@H](CCCCNC(=O)COC3CCCCCc4c3nnn4CC3OC4OC5C(CO)OC(OC6C(CO)OC(OC7C(CO)OC(OC8C(CO)OC(OC9C(CO)OC(OC3C(O)C4O)C(O)C9O)C(O)C8O)C(O)C7O)C(O)C6O)C(O)C5O)NC(=O)CCOCCOCCOCCOCCNC(=O)CCC(=O)N3Cc4ccccc4C#Cc4ccccc43)C(C)C)cc2)O1` (stereo partly drawn) [Ex47], for which, in data set [1] (water), the “aqueous solubility (in words)” value is “below detectable levels”. For the same compound, the solubility (usually how much of the substance goes into solution per volume) at 10 min in data set [1] (setting [2]) is less than 100 µg/mL. Moreover, at Cathepsin B, the “Cathepsin B cleavage rate” value is recorded as 14% and the “CapB (%)” value was “% (% ≤50 CapB (%))”.

Turning to `CC(C)[C@H](NC(=O)[C@@H](CCCCNC(=O)CCOCCOCCOCCOCCNC(=O)COC1CCCCCc2nnn(CC3OC4OC5C(CO)OC(OC6C(CO)OC(OC7C(CO)OC(OC8C(CO)OC(OC9C(CO)OC(OC3C(O)C4O)C(O)C9O)C(O)C8O)C(O)C7O)C(O)C6O)C(O)C5O)c21)NC(=O)CCOCCOCCOCCOCCNC(=O)CCC(=O)N1Cc2ccccc2C#Cc2ccccc21)C(=O)N[C@@H](C)C(=O)Nc1ccc2c(c1)[C@@]1(C)CCC[C@](C)(C(=O)NC(=O)[C@@]3(C)CCC[C@]4(C)c5cc(O)ccc5CC[C@@H]34)[C@@H]1CC2` (stereo partly drawn) [Ex53, DIBAC-suc-PEG4-D-Lys(PEG4-COT-CD)-Val-Ala-1d], the solubility at 10 min was found to be 330 µg/mL (≈ 119 µM) in data set [1] (water, Aq. Solubility (mg/mL)) and 180 µg/mL (≈ 65 µM) in data set [1] (water, Solubility). In addition, the “CapB (%)” value at Cathepsin B is on record as “% (50< % ≤60 CapB (%))”.

Regarding `CCCC1O[C@@H]2C[C@H]3[C@@H]4C[C@H](F)C5=CC(=O)C=C[C@]5(C)[C@@]4(F)[C@@H](O)C[C@]3(C)[C@]2(C(=O)COc2ccc(NC(=O)OCc3ccc(NC(=O)[C@H](CCCNC(N)=O)NC(=O)[C@@H](NC(=O)CCOCCOCCOCCOCCNC(=O)CCC(=O)N4Cc5ccccc5C#Cc5ccccc54)C(C)C)cc3)cc2)O1` (stereo partly drawn) [Ex61, DIBAC-suc-PEG4-vcPAB-1i], the Solubility in data set [1] (10 min) was determined as 0.01 mg/ mL mg/mL. For the same compound, the solubility at 10 min in data set [1] (water, Aq. Solubility (mg/mL)) is 10 µg/mL (≈ 6.68 µM); in data set [1] (water, Solubility), less than 10 µg/mL. Further, the capB on Cathepsin B is reported as less than 5%. In addition, the “CapB (%)” value on Cathepsin B is on record as “% (% ≤50 CapB (%))”.

On Cathepsin B, `CC(C)[C@H](NC(=O)[C@@H](CCCCNC(=O)COC1CCCCCc2c1nnn2CC1OC2OC3C(CO)OC(OC4C(CO)OC(OC5C(CO)OC(OC6C(CO)OC(OC7C(CO)OC(OC8C(CO)OC(OC9C(CO)OC(OC1C(O)C2O)C(O)C9O)C(O)C8O)C(O)C7O)C(O)C6O)C(O)C5O)C(O)C4O)C(O)C3O)NC(=O)CCOCCOCCOCCOCCNC(=O)CCC(=O)N1Cc2ccccc2C#Cc2ccccc21)C(=O)N[C@@H](C)C(=O)Nc1ccc2c(c1)[C@@]1(C)CCC[C@](C)(C(=O)NC(=O)[C@@]3(C)CCC[C@]4(C)c5cc(O)ccc5CC[C@@H]34)[C@@H]1CC2` (stereo partly drawn) [Ex57, DIBAC-suc-PEG4-D-Lys(COT-CD)-vcPAB-1d] showed a capB of 8.3%.

For the compound `CC[C@H](C)[C@@H]([C@@H](CC(=O)N1CCC[C@H]1[C@H](OC)[C@@H](C)C(=O)N[C@H](C)[C@@H](O)c1ccccc1)OC)N(C)C(=O)[C@@H](NC(=O)[C@H](C(C)C)N(C)C(=O)OCc1ccc(NC(=O)[C@H](CCCNC(N)=O)NC(=O)[C@@H](NC(=O)CCOCCOCCOCCOCCNC(=O)CCC(=O)N2Cc3ccccc3C#Cc3ccccc32)C(C)C)cc1)C(C)C` [Ex36] ({DBCO-Suc-PEG4}-V[Cit][PABC][NMeV]V[Dil][Dolaproine]-X1), the solubility at 10 min in data set [1] (setting [2]) and in data set [1] (setting [3]) was less than 100 µg/mL each time. Further, at Cathepsin B, the “CapB (%)” value is listed as “% % (60< % % ≤70 CapB (%))”.

`CC(C)[C@H](NC(=O)[C@@H](CCCCNC(=O)CCOCCOCCOCCOCCNC(=O)COC1CCCCCc2nnn(CC3OC4OC5C(CO)OC(OC6C(CO)OC(OC7C(CO)OC(OC8C(CO)OC(OC9C(CO)OC(OC3C(O)C4O)C(O)C9O)C(O)C8O)C(O)C7O)C(O)C6O)C(O)C5O)c21)NC(=O)CCOCCOCCOCCOCCNC(=O)CCC(=O)N1Cc2ccccc2C#Cc2ccccc21)C(=O)N[C@@H](CCCNC(N)=O)C(=O)Nc1ccc(COC(=O)NCCOc2ccc3c(c2)[C@@]2(C)CCC[C@](C)(C(=O)NC(=O)[C@@]4(C)CCC[C@]5(C)c6cc(O)ccc6CC[C@@H]45)[C@@H]2CC3)cc1` (stereo partly drawn) [Ex50] showed a solubility at 10 min in data set [1] (water, Solubility) of 330 µg/mL (≈ 108 µM). At Cathepsin B, the “CapB (%)” value was “% (% ≤50 CapB (%))”.

Take `CCC[C@@H]1O[C@@H]2C[C@H]3[C@@H]4CCC5=CC(=O)C=C[C@]5(C)[C@H]4[C@@H](O)C[C@]3(C)[C@]2(C(=O)COc2ccc(NC(=O)[C@H](C)NC(=O)[C@@H](NC(=O)CCOCCOCCOCCOCCNC(=O)CCC(=O)N3Cc4ccccc4C#Cc4ccccc43)C(C)C)cc2)O1` [Ex45, 1-(4-{2-azatricyclo[10.4.0.0^4,9]hexadeca-1(12),4(9),5,7,13,15-hexaen-10-yn-2-yl}-4-oxobutanamido)-N-[(1S)-1-{[(1S)-1-[(4-{2-[(1S,2S,4R,6R,8S,9S,11 S,12S,13R)-11-hydroxy-9,13-dimethyl-16-oxo-6-propyl-5,7-dioxapentacyclo[10.8.0.0^2,9.0^4,8.0^13,18]icosa-14,17-dien-8-yl]-2-oxoethoxy}phenyl)carbamoyl]ethyl]carbamoyl}-2-methylpropyl]-3,6,9,12-tetraoxapentadecan-15-amide]: the solubility at 10 min in data set [1] (setting [2]) and in data set [1] (setting [3]) was less than 100 µg/mL throughout. The “CapB (%)” value on Cathepsin B is recorded as “% (% ≤50 CapB (%))”.

With `CC[C@H](C)[C@@H]([C@@H](CC(=O)N1CCC[C@H]1[C@H](OC)[C@@H](C)C(=O)N[C@H](C)[C@@H](O)c1ccccc1)OC)N(C)C(=O)[C@@H](NC(=O)[C@H](C(C)C)N(C)C(=O)OCc1ccc(NC(=O)[C@H](CCCNC(N)=O)NC(=O)[C@@H](NC(=O)[C@@H](CCCCNC(=O)COC2CCCCCc3c2nnn3CC2OC3OC4C(CO)OC(OC5C(CO)OC(OC6C(CO)OC(OC7C(CO)OC(OC8C(CO)OC(OC2C(O)C3O)C(O)C8O)C(O)C7O)C(O)C6O)C(O)C5O)C(O)C4O)NC(=O)CCOCCOCCOCCOCCNC(=O)OC[C@@H]2[C@@H]3CCC#CCC[C@@H]32)C(C)C)cc1)C(C)C` (stereo partly drawn) [Ex42], the solubility at 10 min in data set [1] (setting [2]) is greater than 1000 µg/mL; in data set [1] (setting [3]), 1000 µg/mL (≈ 352 µM). For the same compound, on Cathepsin B, the “CapB (%)” value is “% % (60< % % ≤70 CapB (%))”.

For `CC[C@H](C)[C@@H]([C@@H](CC(=O)N1CCC[C@H]1[C@H](OC)[C@@H](C)C(=O)N[C@H](C)[C@@H](O)c1ccccc1)OC)N(C)C(=O)[C@@H](NC(=O)[C@H](C(C)C)N(C)C(=O)OCc1ccc(NC(=O)[C@H](CCCNC(N)=O)NC(=O)[C@@H](NC(=O)[C@@H](CCCCNC(=O)COC2CCCCCc3c2nnn3CC2OC3OC4C(CO)OC(OC5C(CO)OC(OC6C(CO)OC(OC7C(CO)OC(OC8C(CO)OC(OC2C(O)C3O)C(O)C8O)C(O)C7O)C(O)C6O)C(O)C5O)C(O)C4O)NC(=O)CCOCCOCCOCCOCCNC(=O)CCC(=O)N2Cc3ccccc3C#Cc3ccccc32)C(C)C)cc1)C(C)C` (stereo partly drawn) [Ex41], the solubility at 10 min turned out to be 140 µg/mL (≈ 47.5 µM) in data set [1] (setting [2]) and 250 µg/mL (≈ 84.8 µM) in data set [1] (setting [3]). Moreover, on Cathepsin B, the “CapB (%)” value is given as “% % (70< % % ≤80 CapB (%))”.
